“Also recorded” adds a separate entry of the source.
What was measured:
[1] = tested on: NT2 cells; assay: RA-induced neuronal differentiation of NT2 cell aggregates (phase contrast morphology); assay type: cell-based, human; conditions: for number of neurons that could be prepared: NT2 aggregates
Experimental: NT2 cells were cultured as previously described (Pleasure, S. J. et al., 1992, J. Neurosci. 12:1802-1815). Briefly, cells were maintained in OptiMEMI-reduced serum medium (GIBCO, Palo Alto, Calif., USA) supplemented with 5% fetal bovine serum (FBS; GIBCO, Palo Alto, Calif., USA). When NT2 cells were differentiated by the standard protocol, NT2 cells were seeded at 2×10^6 cells per 75 cm^2 in Dulbecco's Modified Eagle's medium (high glucose formulation) (DMEM-HG; GIBCO, Palo Alto, Calif., USA) and were treated with a final concentration of 10 μM all-trans RA (SIGMA, St. Louis, Mo., USA). In the cell aggregation studies, cells were dislodged by trypsinization and were plated at 1×10^5 cells per ml into a 85-mm bacteriological grade petri dish in DMEM-HG supplemented 10% FBS. After incubation overnight at 37° C. in a 5% CO2 incubator, the aggregates were supplemented with a final concentration of 10 μM all-trans RA. The medium was replaced every two days. After 14 days of RA treatment, aggregates were plated onto tissue culture grade petri dish pre-coated with 10 μg/ml poly-D-lysine (PDL; SIGMA, St. Louis, Mo., USA), 10 μg/ml mouse laminin (LAM; GIBCO, Palo Alto, Calif., USA) and 0.1% gelatin (SIGMA, St. Louis, Mo., USA) in Dulbecco's Phosphate buffered saline (D-PBS; GIBCO, Palo Alto, Calif., USA). Following overnight incubation, aggregates were then cultured in DMEM-HG with 10% FBS supplemented with 1 μM cytosine D-arabinofuranoside (arac; SIGMA, St. Louis, Mo., USA) and 10 μM uridine (SIGMA, St. Louis, Mo., USA). After 3 days of incubation, neurons were detached by tapping gently on the side of the tissue culture plate, or by brief trypsinization, and replated on to a new pre-coated tissue culture plate. Incubation was continued in the presence of araC and uridine for another 4 days. Neurons obtained could be kept in DMEM supplemented with 10% FBS for more than 3 weeks.
To examine the effect of cell aggregation on RA-induced neuronal differentiation, NT2 cells were pre-aggregated as described above. After 14 days of RA treatment, aggregates were plated on PDL and LAM (PDL/LAM) coated plates. […] Phase bright neuron-like cells with long extended neurites continued to migrate out from the NT2 aggregates. At day 3 after replating, these cells grew on the surface of large-flattened cells (FIG. 1). […] However, neuron-like cells were subsequently overwhelmed by both undifferentiated NT2 cells and the differentiated large-flattened cells (Pleasure, S. J. et al., 1992, J. Neurosci. 12:1802-1815).
It is possible that the sustained requirement of RA for the neuronal differentiation of NT2 is indeed due to the lack of cell-cell interaction. To examine this possibility, NT2 cells were maintained as aggregates in bacteriological culture dish for 14 days and RA treatment was given only during the first few days of aggregation (1 to 5 days).

[2] = tested on: monolayer NT2 cells; assay: Western blot of neuronal markers in RA-treated monolayer NT2 cultures; assay type: cell-based, human; conditions: RA 0.1 to 10 μM for 16 days
Experimental: (§1) FIG. 5. Expression of neuronal markers in RA differentiated NT2 aggregates. NT2 cells were pre-aggregated by RA at concentration (10^−7 to 10^−5 M) for 14 days and replated onto PDL/LAM coated plates for two days. As control experiments, NT2 cells were plated at 2×10^5 cells/ml as monolayer cultures and differentiated with RA (10^−7 to 10^−5 M) for a total of 16 days. Total proteins were extracted and Western blot analysis was performed using antibodies specific against phosphorylated NF-M (NF-M-P; upper panel) and synapsin I (lower panel).
Cells were washed twice with ice-cold PBS followed by a wash with ice-cold PBS supplemented with 1 mM sodium orthovanadate (NaOV; SIGMA, St. Louis, Mo., USA). Cells were then lysed with lysis buffer (50 mM Tris.Cl at pH8, 150 mM NaCl, 1% TX, 1×aprotinin; SIGMA, St. Louis, Mo., USA, 1 mM PMSF; GIBCO, Palo Alto, Calif., USA and 1 mM NaOV) at 4° C. for 15 minutes. Lysates were collected and centrifuged to remove cell debris. Protein assays were performed with Bio-Rad Protein Assay Kit based on the Bradford dye-binding procedure (BIO-RAD, Hercules, Calif., USA). Protein (typically 10 μg) were separated by SDS-PAGE and then electro-transferred to nitrocellulose membrane (MSI, Westborough, Mass., USA). […] After three washes with TBS-Tween, immunoreactive bands were detected using ECL kit (AMERSHAM, Arlington Heights, Ill., USA). […]

[3] = tested on: NT2 cells; conditions: standard protocol for differentiation; cited from earlier work
[4] = tested on: NT2 cells; assay: Indirect immunofluorescent analysis of NT2 neurons differentiated by cell aggregation; assay type: cell-based, human; conditions: RA 5 μM for 14 days, two days after replating in RA-free medium
Experimental: NT2 cells were aggregated and differentiated by RA (5 μM) for 14 days. Two days after replating in RA-free medium, differentiated NT2 cells were fixed and stained with the antibodies specific against TH (upper panel), and phosphorylated NF-M (lower panel). Scale bar, 50 μm.
For immunofluorescent analysis, control or differentiated aggregates cultures were fixed with 4% paraformaldehyde (FLUKA, Hauppauge, N.Y., USA) in PBS. After blocking with 4% normal serum (NS; VECTOR LAB, Burlingame, Calif., USA) in PBS containing 0.4% Triton-X (TX; BOERINGER MANNEHEIM, Mannheim, Germany), and 1% bovine serum albumin (BSA; SIGMA, St. Louis, Mo., USA), aggregates were incubated overnight at 4° C. with primary antibodies diluted in antibody diluent (1% NS, 0.4% TX and 1% BSA). Incubation with secondary antibodies was performed at room temperature for at least 2 hours. Cells were visualized under fluorescence microscope (ZEISS, Jena, Germany). […]
In order to verify whether the phase-bright cells obtained following cell aggregation were neurons, immunocytochemical analysis was performed. High-molecular weight neurofilament proteins (200 kDa) were detected in the neurites of the neurons (FIG. 2). […] In addition, substance P (SP) was detected in both the cell bodies and the neurites of the neurons (FIG. 2). […]

[5] = tested on: NT2 aggregates; assay: Western blot of neuronal markers in RA-differentiated NT2 aggregates; assay type: cell-based, human
Experimental: as §1
Cells were washed twice with ice-cold PBS followed by a wash with ice-cold PBS supplemented with 1 mM sodium orthovanadate (NaOV; SIGMA, St. Louis, Mo., USA). Cells were then lysed with lysis buffer (50 mM Tris.Cl at pH8, 150 mM NaCl, 1% TX, 1×aprotinin; SIGMA, St. Louis, Mo., USA, 1 mM PMSF; GIBCO, Palo Alto, Calif., USA and 1 mM NaOV) at 4° C. for 15 minutes. Lysates were collected and centrifuged to remove cell debris. Protein assays were performed with Bio-Rad Protein Assay Kit based on the Bradford dye-binding procedure (BIO-RAD, Hercules, Calif., USA). Protein (typically 10 μg) were separated by SDS-PAGE and then electro-transferred to nitrocellulose membrane (MSI, Westborough, Mass., USA). After blocking at room temperature for 1 hr using TBS-Tween containing 5% non-fat milk, membranes were incubated overnight at 4° C. with primary antibodies in TBS-Tween containing 5% non-fat milk. Membranes were then incubated with horseradish peroxidase conjugated secondary antibodies (1:2000 dilution; AMERSHAM, Arlington Heights, Ill., USA) for 1 hour at room temperature. After three washes with TBS-Tween, immunoreactive bands were detected using ECL kit (AMERSHAM, Arlington Heights, Ill., USA).
To study whether the high concentrations of RA required for inducing neuronal differentiation of NT2 cells could be lowered under the condition of cell aggregation, we exposed the NT2 aggregates to reduced concentration of RA (0.1 to 10 μM). Following treatment of NT2 aggregates with RA for 14 days, these cells were plated onto PDL/LAM coated plates in RA-free medium, and total protein samples were prepared 2 days later. As control, total protein samples were extracted from monolayer NT2 cultures treated with 16 days of RA (0.1 to 10 μM).

[6] = NT2 aggregates, RA 0.1 to 10 μM

CC1=C(/C=C/C(C)=C/C=C/C(C)=C/C(=O)O)C(C)(C)CCC1 [RA, all-trans retinoic acid]
formation of neurons after brief RA treatment ([1]; 2 to 3 days of RA treatment (10 μM), cells maintained as aggregates for 14 days): Neurons were observed
neurite outgrowth from NT2 aggregates ([1]; 14 days of RA treatment (10 μM), plated on PDL/LAM, overnight incubation without RA): Neurite outgrowth was initiated
number of neurons that could be prepared ([1]; 0.1 μM RA): almost no neurons were observed; also recorded: did not result in cells that resembled neurons
number of neurons that could be prepared ([1]; 1 μM RA): only a few neurons could be observed
time to formation of neurons ([1]; NT2 cells treated with RA as aggregates in bacteriological plates): ≤ 16 days
extension of neurites from NT2 cells ([1]; RA for only 12 days, 2 days after plating on PDL/LAM): extension of neurites from NT2 cells was observed
neuritic outgrowth of RA-treated aggregates ([1]; cell aggregation period less than 12 days): did not result in observable neuritic outgrowth
expression of phosphorylated NF-M [2]: expressed phosphorylated NF-M only at higher concentrations of RA (1 or 10 μM)
time until neuron-like cells observed after RA treatment [3]: about five weeks
expression of neuronal specific proteins (NF200, synapsin I, substance P, GABA) [4]: expressed neuronal specific proteins
expression of tyrosine hydroxylase (TH) [4]: expressed tyrosine hydroxylase (TH)
expression level of phosphorylated NF-M proteins, aggregates versus monolayer ([5]; NT2 aggregates at 0.1 μM RA versus monolayer NT2 cells at 10 μM RA): comparable expression level
expression level of phosphorylated NF-M proteins versus RA concentration [5, 6]: elevated with increased concentration of RA
synapsin I protein expression [5, 6]: High level of synapsin I protein expression was detected
expression of phosphorylated NF-M proteins ([5]; NT2 aggregates, RA 0.1 to 10 μM for 14 days, 2 days on PDL/LAM): could induce the expression of phosphorylated NF-M proteins

From patent publication US20030017590A1, “PRODUCTION OF HUMAN CNS NEURONS FROM EMBRYONAL CARCINOMA CELLS USING CELL AGGREGATION METHOD” (priority 1999, published 2003)
